Here are results for three compounds from ChEMBL document CHEMBL1144985, “Rational design, synthesis and structure-activity relationships of a cyclic succinate series of TNF-alpha converting enzyme inhibitors. Part 2: lead optimization” (Bioorg Med Chem Lett, 2003).

The structures appear in SMILES notation. In brackets after ≈: the same amount, converted by molar mass.

Series [1] is described as follows: Solubility was determined.
The target in series [2] is 72 kDa type IV collagenase (Homo sapiens, UniProt P08253). Description: Inhibitory activity against matrix metalloprotease-2 (MMP-2).
Chain of 72 kDa type IV collagenase (P08253 whole entry): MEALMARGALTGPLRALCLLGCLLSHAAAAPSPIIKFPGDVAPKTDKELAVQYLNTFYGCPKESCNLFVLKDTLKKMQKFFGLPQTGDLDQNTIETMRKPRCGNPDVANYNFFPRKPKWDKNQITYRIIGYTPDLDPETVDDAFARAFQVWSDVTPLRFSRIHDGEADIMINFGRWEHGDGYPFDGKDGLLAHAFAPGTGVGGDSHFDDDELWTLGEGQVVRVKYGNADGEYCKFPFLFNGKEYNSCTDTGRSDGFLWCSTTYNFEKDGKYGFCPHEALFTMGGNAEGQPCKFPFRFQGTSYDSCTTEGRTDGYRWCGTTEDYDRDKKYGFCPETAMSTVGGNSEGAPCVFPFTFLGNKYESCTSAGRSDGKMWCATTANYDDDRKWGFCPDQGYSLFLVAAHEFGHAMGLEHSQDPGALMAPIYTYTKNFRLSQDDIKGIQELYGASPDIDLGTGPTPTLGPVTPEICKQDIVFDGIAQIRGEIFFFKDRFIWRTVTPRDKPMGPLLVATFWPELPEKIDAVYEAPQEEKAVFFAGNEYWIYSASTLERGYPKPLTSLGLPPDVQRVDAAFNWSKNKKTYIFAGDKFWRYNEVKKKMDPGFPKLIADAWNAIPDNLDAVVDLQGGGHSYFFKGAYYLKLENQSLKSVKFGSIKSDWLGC
Series [3] has as its target Matrix metalloproteinase-9 (Homo sapiens, UniProt P14780). The experiment in a line: Inhibitory activity against matrix metalloprotease-9 (MMP-9).
In series [4] the target is Disintegrin and metalloproteinase domain-containing protein 17 (Sus scrofa, UniProt O77636). The experiment in a line: In vitro binding affinity against porcine TACE.
Chain of Disintegrin and metalloproteinase domain-containing protein 17 (O77636 whole entry, the tested form may be a part): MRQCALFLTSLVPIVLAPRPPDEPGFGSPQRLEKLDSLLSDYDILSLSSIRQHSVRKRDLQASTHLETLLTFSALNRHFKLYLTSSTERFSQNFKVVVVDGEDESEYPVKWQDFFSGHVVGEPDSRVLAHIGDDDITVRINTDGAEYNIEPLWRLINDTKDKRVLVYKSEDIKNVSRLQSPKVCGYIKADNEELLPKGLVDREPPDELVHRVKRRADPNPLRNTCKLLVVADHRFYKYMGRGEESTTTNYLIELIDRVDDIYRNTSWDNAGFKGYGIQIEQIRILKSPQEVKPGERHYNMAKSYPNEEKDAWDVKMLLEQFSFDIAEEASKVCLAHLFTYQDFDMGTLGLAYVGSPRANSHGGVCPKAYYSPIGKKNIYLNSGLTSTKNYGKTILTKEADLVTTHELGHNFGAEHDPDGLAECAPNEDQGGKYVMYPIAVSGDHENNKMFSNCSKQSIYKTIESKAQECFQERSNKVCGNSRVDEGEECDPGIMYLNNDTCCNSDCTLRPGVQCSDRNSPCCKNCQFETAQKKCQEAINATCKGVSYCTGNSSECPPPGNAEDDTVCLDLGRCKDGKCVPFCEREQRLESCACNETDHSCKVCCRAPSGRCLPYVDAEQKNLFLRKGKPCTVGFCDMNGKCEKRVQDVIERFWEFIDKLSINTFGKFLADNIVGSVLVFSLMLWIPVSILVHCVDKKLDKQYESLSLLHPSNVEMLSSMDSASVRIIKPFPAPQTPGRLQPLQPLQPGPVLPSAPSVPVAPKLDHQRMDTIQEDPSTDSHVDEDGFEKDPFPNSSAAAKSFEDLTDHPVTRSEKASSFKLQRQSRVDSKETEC
For series [5], the species on record is Homo sapiens. Description: In vitro inhibition of TNF-alpha production was determined by using LPS-stimulated human whole blood assay (WBA). The series is classed as functional.
Series [6] relates to Caco-2. To be noted: Homo sapiens.
Description: Caco-2 permeability was determined
Series [7] has as its target T1, Interstitial collagenase (Homo sapiens, UniProt P03956).
T1 sequence (P03956 whole entry): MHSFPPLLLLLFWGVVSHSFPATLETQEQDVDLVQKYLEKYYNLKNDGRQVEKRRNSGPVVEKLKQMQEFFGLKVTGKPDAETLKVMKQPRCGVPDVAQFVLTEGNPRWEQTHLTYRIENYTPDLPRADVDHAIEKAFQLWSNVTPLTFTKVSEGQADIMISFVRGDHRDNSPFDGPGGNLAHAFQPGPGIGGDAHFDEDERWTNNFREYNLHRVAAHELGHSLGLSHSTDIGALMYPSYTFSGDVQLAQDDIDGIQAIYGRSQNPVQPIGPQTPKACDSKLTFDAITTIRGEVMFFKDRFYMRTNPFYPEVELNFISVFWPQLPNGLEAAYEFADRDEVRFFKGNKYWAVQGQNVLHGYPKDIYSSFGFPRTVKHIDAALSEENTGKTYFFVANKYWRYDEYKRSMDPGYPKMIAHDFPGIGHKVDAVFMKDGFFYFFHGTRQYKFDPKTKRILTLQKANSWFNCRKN
Description: Inhibitory activity against matrix metalloprotease-1 (MMP-1).

Chain of Matrix metalloproteinase-9 (P14780 whole entry, the tested form may be a part): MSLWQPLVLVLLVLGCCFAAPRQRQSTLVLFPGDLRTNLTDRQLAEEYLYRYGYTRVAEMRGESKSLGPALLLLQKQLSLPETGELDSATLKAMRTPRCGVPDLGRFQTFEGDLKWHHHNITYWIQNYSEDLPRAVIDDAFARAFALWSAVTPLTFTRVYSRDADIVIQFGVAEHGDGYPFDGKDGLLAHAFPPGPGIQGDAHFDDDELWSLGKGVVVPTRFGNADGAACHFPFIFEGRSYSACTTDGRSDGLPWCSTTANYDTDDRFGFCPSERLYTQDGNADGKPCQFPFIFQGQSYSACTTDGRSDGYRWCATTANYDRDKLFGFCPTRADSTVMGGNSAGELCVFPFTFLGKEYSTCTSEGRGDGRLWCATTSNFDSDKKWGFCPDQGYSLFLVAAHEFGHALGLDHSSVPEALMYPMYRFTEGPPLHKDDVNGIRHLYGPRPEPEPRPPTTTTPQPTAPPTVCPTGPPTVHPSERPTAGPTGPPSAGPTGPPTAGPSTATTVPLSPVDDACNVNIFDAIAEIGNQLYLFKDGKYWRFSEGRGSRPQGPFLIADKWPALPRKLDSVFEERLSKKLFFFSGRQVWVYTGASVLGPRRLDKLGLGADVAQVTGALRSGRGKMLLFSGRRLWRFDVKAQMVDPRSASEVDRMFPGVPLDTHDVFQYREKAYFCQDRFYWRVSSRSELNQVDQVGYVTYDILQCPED

One may read the solubility as the concentration that dissolves in the medium under given conditions. For orientation: Ki means a measure of affinity in units of concentration, obtained from inhibition or displacement. High values mean lower affinity, low ones higher affinity. One may read the IC50 as the concentration that gives 50% inhibition. Broadly, the Papp is the rate of passage across a membrane or cell layer, normalised by area and donor concentration. Read a low Papp as poor permeation. `Cc1cc(COc2ccc(NC(=O)[C@H]3CCN(C(=O)c4ccco4)C[C@@H]3C(=O)NO)cc2)c2ccccc2n1`: the solubility in series [1] worked out at 10 µg/mL (≈ 18.9 µM). Further, the Ki in series [2] was over 1010 nM; in series [3], over 465 nM; in series [7] it was over 4950 nM. For the same compound, the IC50 amounted to 0.066 nM in series [4] and 170 nM in series [5]. Also, in series [6], the Papp was 0.1 10e-6 cm s-1.
With `Cc1cc(COc2ccc(NC(=O)[C@H]3CCN(C(=O)C4CC4)C[C@@H]3C(=O)NO)cc2)c2ccccc2n1`, in series [1], the concentration in solution (solubility) was 50 µg/mL (≈ 99.5 µM). Moreover, the inhibitory constant (Ki) in series [2] was over 2450 nM; in series [3], over 1660 nM; in series [7] it was over 4950 nM. Further, the IC50 in series [4] amounted to 0.45 nM; in series [5] it was 390 nM. Also, the Papp in series [6] was 0.2 10e-6 cm s-1.
In series [1], `Cc1cc(COc2ccc(NC(=O)[C@H]3CCN(C(=O)C(C)C)C[C@@H]3C(=O)NO)cc2)c2ccccc2n1` returned a solubility of 30 µg/mL (≈ 59.5 µM). The Ki in series [2] is over 3330 nM; in series [3], over 2130 nM; in series [7] it was over 4950 nM. Moreover, the 50% inhibitory concentration (IC50) came out at 0.22 nM in series [4] and 270 nM in series [5]. Besides, the apparent permeability coefficient (Papp) in series [6] is 0.3 10e-6 cm s-1.
